In patent publication US20050119300A1, “Development of novel regulators of angiogenesis” (priority 2002, published 2005):

Tests used:
endothelial cells = conditions: reported; cited from earlier work
[1] = system: human vascular endothelial cells (HUVECS); assay: Endothelial cell proliferation, 3H-thymidine uptake assay; type: cell-based; conditions: for % Inhibition vs 10% Serum / Average ([3H]-thymidine incorporation, radioactivity) / Well 1 ([3H]-thymidine incorporation, radioactivity) / Well 2 ([3H]-thymidine incorporation, radioactivity) / Well 3 ([3H]-thymidine incorporation, radioactivity) / Well 4 ([3H]-thymidine incorporation, radioactivity): Table 1A
Experimental: After 20 h, [^3H]-thymidine (2 μCi/ml) was added to the culture medium for 2-4 h. The [^3H]-thymidine incorporation was stopped with ice-cold PBS (3 washes) and the cells were incubated with cold 10% trichloroacetic acid (TCA) for 10 min at 4C. The cells were further incubated with TCA at room temperature for 10 min and washed three times with PBS. The cells were solubilized overnight with 1N NaOH and neutralized with an equivalent amount of 1N HCl before radioactivity was determined. […]

[2] = system: vascular endothelial growth factor (VEGF) and basic fibroblast growth factor (bFGF) induced angiogenesis; conditions: has been reported; cited from earlier work
[3] = system: VEGF-induced and bFGF-induced corneal neovascularization; conditions: further studies, reported; cited from earlier work

In the case of O=C1CCC(N2C(=O)c3ccccc3C2=O)C(=O)N1 (stereo not shown) [STD, thalidomide], the “inhibition of the in vitro proliferation of endothelial cells” value (endothelial cells) is given as “ability to inhibit”, the “effect on endothelial cell proliferation (in words)” value ([1]; 3H-thymidine uptake) is given as “significant inhibition of endothelial cell proliferation” and the “% Inhibition vs 10% Serum” value ([1]; 38.5 uM) is given as −61.49%. For the same compound, the “Average ([3H]-thymidine incorporation, radioactivity)” value (from here on “Average”) ([1]; 38.5 uM) was 2700.214, the “Well 1 ([3H]-thymidine incorporation, radioactivity)” value ([1]; 38.5 uM) was 1835.938 and the “Well 2 ([3H]-thymidine incorporation, radioactivity)” value ([1]; 38.5 uM) was 2018.496. For the same compound, the “Well 3 ([3H]-thymidine incorporation, radioactivity)” value ([1]; 38.5 uM) was 4751.43, the “Well 4 ([3H]-thymidine incorporation, radioactivity)” value ([1]; 38.5 uM) was 2194.99 and the “% Inhibition vs 10% Serum” value ([1]; 96 uM) was 30.39%. The “Average” value ([1]; 96 uM) was 1163.906, the “Well 1 ([3H]-thymidine incorporation, radioactivity)” value ([1]; 96 uM) was 1736.688 and the “Well 2 ([3H]-thymidine incorporation, radioactivity)” value ([1]; 96 uM) was 850.094. The “Well 3 ([3H]-thymidine incorporation, radioactivity)” value ([1]; 96 uM) was 1083.54, the “Well 4 ([3H]-thymidine incorporation, radioactivity)” value ([1]; 96 uM) was 985.3011 and the “% Inhibition vs 10% Serum” value ([1]; 192.5 uM) was 78.48%. For the same compound, the “Average” value ([1]; 192.5 uM) was 359.8271, the “Well 1 ([3H]-thymidine incorporation, radioactivity)” value ([1]; 192.5 uM) was 255.2577 and the “Well 2 ([3H]-thymidine incorporation, radioactivity)” value ([1]; 192.5 uM) was 435.4396. For the same compound, the “Well 3 ([3H]-thymidine incorporation, radioactivity)” value ([1]; 192.5 uM) was 336.7686, the “Well 4 ([3H]-thymidine incorporation, radioactivity)” value ([1]; 192.5 uM) was 411.8425 and the “% Inhibition vs 10% Serum” value ([1]; 289 uM) was 85.34%. For the same compound, the “Average” value ([1]; 289 uM) was 245.0808, the “Well 1 ([3H]-thymidine incorporation, radioactivity)” value ([1]; 289 uM) was 198.4536 and the “Well 2 ([3H]-thymidine incorporation, radioactivity)” value ([1]; 289 uM) was 273.8429. The “Well 3 ([3H]-thymidine incorporation, radioactivity)” value ([1]; 289 uM) was 272.3789, the “Well 4 ([3H]-thymidine incorporation, radioactivity)” value ([1]; 289 uM) was 235.6478 and the “% Inhibition vs 10% Serum” value ([1]; 385 uM) was 86.86%. The “Average” value ([1]; 385 uM) was 219.7341, the “Well 1 ([3H]-thymidine incorporation, radioactivity)” value ([1]; 385 uM) was 141.5772 and the “Well 2 ([3H]-thymidine incorporation, radioactivity)” value ([1]; 385 uM) was 255.4687. The “Well 3 ([3H]-thymidine incorporation, radioactivity)” value ([1]; 385 uM) was 210.2551, the “Well 4 ([3H]-thymidine incorporation, radioactivity)” value ([1]; 385 uM) was 271.6354 and the “anti-angiogenic efficacy against VEGF and bFGF induced angiogenesis” value [2] was “significant anti-angiogenic efficacy”.
For O=C1CC[C@H](N2C(=O)c3ccccc3C2=O)C(=O)N1 [S(−)-enantiomer of thalidomide], the “anti-angiogenic activity in VEGF-induced and bFGF-induced corneal neovascularization” value [3] is given as “potent anti-angiogenic activity”.
